How the values were obtained:
[1] = molecular target: T1, human KAT8 (residues 125–458) (Homo sapiens, UniProt Q9H7Z6); settings: lysine analogue on histone peptide; cited from earlier work
T1 construct: Recombinant human KAT8 (residues 125–458) was expressed in E. coli; His tag; made in house; host or cells: E. coli
T1 sequence (Q9H7Z6 125-458): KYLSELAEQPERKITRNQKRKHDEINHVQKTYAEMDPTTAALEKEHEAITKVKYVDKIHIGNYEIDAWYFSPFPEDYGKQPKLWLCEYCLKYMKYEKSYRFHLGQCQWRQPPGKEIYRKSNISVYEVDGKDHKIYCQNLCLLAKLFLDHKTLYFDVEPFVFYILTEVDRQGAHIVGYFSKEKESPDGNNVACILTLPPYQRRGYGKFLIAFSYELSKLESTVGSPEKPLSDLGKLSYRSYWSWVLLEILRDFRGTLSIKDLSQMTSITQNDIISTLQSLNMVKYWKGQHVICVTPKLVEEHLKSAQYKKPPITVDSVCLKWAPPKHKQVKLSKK
Method: The biocatalytic potential of KAT8 was assessed through a MALDI-TOF MS based enzymatic assay. Human KAT8 was incubated in the presence of H4K*16 peptides and AcCoA under “standard conditions” (2 µM KAT8, 100 µM histone peptide, 300 µM AcCoA; assay buffer: 50 mM Hepes, 0.1 mM EDTA, 1 mM DTT, pH = 8.0) and the production of acetylated peptides was monitored at different time points. […] KAT8-catalysed acetylation of H4K16 was quantitative after 1 h, in line w ... || Subsequently, we investigated the role of the geometrically constrained and steric lysine analogues for KAT8 catalysis. The KAT8-catalysed reaction of H4KE16 produced 64% of acetylated peptide after 1 h, and reached completion within 3 h (Figure 3i and Figure S17).

[2] = molecular target: T1, human KAT8 (residues 125–458); experiment: MALDI-TOF MS enzymatic assay of KAT8-catalysed acetylation of H4K*16 histone peptides; format: biochemical; settings: standard conditions: 2 µM KAT8, 100 µM histone peptide, 300 µM AcCoA, 50 mM HEPES, 0.1 mM EDTA, 1 mM DTT, pH 8.0, 37 °C
Method: The biocatalytic potential of KAT8 was assessed through a MALDI-TOF MS based enzymatic assay. Human KAT8 was incubated in the presence of H4K*16 peptides and AcCoA under “standard conditions” (2 µM KAT8, 100 µM histone peptide, 300 µM AcCoA; assay buffer: 50 mM Hepes, 0.1 mM EDTA, 1 mM DTT, pH = 8.0) and the production of acetylated peptides was monitored at different time points. […] KAT8-catalysed acetylation of H4K16 was quantitative after 1 h, in line with previous findings (Figure 3a and Figure S17). […] This is an interesting observation, given the well-documented capacity of some histone lysine methyltransferases (KMTs) that introduce higher methylation states (i.e., Kme2 and Kme3) on histone tails starting from Kme as a substrate. […]
KAT8 enzymatic activity towards H4K*16 histone peptides was measured at different time points under standard conditions (2 µM KAT8, 100 µM peptide, 300 µM AcCoA) in reaction buffer (50 mM HEPES, 0.1 mM EDTA, 1 mM DTT, pH = 8.0) as previously described The reactions were performed in a final volume of 50 µL and shaken at 37 °C, using a Thermomixer C (750 rpm). KAT8 activity was stopped at a given time point by the addition of TFA 10% in Milli-Q water, and reactions were analysed by MALDI-TOF MS employing α-Cyano-4-hydroxycinnamic acid (CHCA) matrix.

[3] = molecular target: T1, human KAT8 (residues 125–458); experiment: MALDI-TOF MS kinetics assay of KAT8-catalysed acetylation under steady-state conditions; format: biochemical; settings: pH 7.4, 37 °C
Method: Next, we investigated the catalytic efficiencies for the histone peptides that were observed as KAT8 substrates. Kinetics analyses were carried out under steady-state conditions by incubating saturating concentrations of AcCoA against different concentrations of histone peptides.
Histone peptides kinetics evaluation was carried out with a MALDI-TOF MS assay under steady-state conditions as previously described. Briefly, dilution series of H4K*16 peptides (1050 or 700–0 µM) were incubated with AcCoA (100 µM; > 5 x KM value of AcCoA) and the reactions were started by the addition of KAT8 (570 nM) in kinetic buffer (50 mM HEPES, 0.1 mM EDTA, 0.01% TRITON-X, pH = 7.4). AcCoA stock solutions in Milli-Q water were calibrated using a NanoDrop 2000 spectrophotometer (Thermo Scientific, Waltham, MA, USA), with molar extinction coefficient ε260nm = 16,400 M^−1 cm^−1. Reactions were incubated for 20 min at 37 °C, shaken at 750 rpm and quenched with TFA 10% in Milli-Q water at different time points within the linear production of acetylated peptides. Quantification of the acetylated peptide produced was extrapolated, at any concentration point, with FlexAnalysis software, considering all the ionic species. Kinetic parameters were obtained by fitting V0 values and histone peptide concentrations to the Michaelis–Menten equation using the GraphPad Prism 5 software. Kinetic experiments were carried out in replicates (n = 2 or 3) and final values are reported as the mean value ± SD.

Substance | KAT8 substrate quality [1] | acetylated peptide produced after 1 h [2] | kcat^app ([3]; 570 nM KAT8, 100 µM AcCoA, peptide 1050 or 700–0 µM, 50 mM HEPES, 0.1 mM EDTA, 0.01% TRITON-X, mean ± SD, n = 2 or 3, SD) [s⁻¹] | Km ([3]; 570 nM KAT8, 100 µM AcCoA, peptide 1050 or 700–0 µM, 50 mM HEPES, 0.1 mM EDTA, 0.01% TRITON-X, mean ± SD, n = 2 or 3, SD, read-out: KM^app) [µM] | kcat^app/KM^app ([3]; catalytic efficiency from kcat^app and KM^app) [M⁻¹ s⁻¹]
γ-thialysine | excellent substrate | – | – | – | –
homolysine [hK] | good KAT8 substrate | – | – | – | –
GGAK16RHRKVLRDNIQ [H4K16, histone H4 peptide, residues 13–27, with natural lysine at position 16] | – | quantitative | 0.25 ± 0.013 | 437 ± 107 | 567

— PMC7830570, “Substrate Scope for Human Histone Lysine Acetyltransferase KAT8” (International Journal of Molecular Sciences, 2021)
